Among the data in US20100016547A1, “Glycosilated Peptide and Medicine Comprising It as an Effective Ingredient” (priority 2005, published 2010) are IC50 and EC50 values, retold here.

pEC50, pIC50: −log10 of the molar value. Peptide text beside a SMILES is read from it. * marks the point of attachment. X2 = CC(=O)N[C@@H]1[C@@H](O)[C@H](O[C@@H]2O[C@H](CO[C@]3(C(=O)O)C[C@H](O)[C@@H](NC(C)=O)[C@H]([C@H](O)[C@H](O)CO)O3)[C@H](O)[C@H](O)[C@H]2O)[C@@H](CO)O[C@H]1N*; X1 = CC(=O)N[C@@H]1[C@@H](O)[C@H](O[C@@H]2O[C@H](CO)[C@H](O)[C@H](O)[C@H]2O)[C@@H](CO)O[C@H]1N*; NH(β-GlcNAc) = CC(=O)N[C@@H]1[C@@H](O)[C@H](O)[C@@H](CO)O[C@H]1N*

Assay [1] deals with T1, GLP-1 receptor (Homo sapiens, UniProt P43220).
Method: After being incubated at room temperature for 2 hours, the solution was filtered through a unifilter 96GF/C plate (Perkin-Elmer) pretreated with 1% polyethylenimine containing 0.5% BSA, washed with 25 mM HEPES buffer solution (pH 7.4) containing 0.5% BSA, and radioactivity remained on the filter was measured by a gamma counter (Top Counter; Perkin-Elmer).
Assay [2] has as its target T1, GLP-1 receptor. Kind of assay: Assay for production of cAMP.
Method: Assay for Production of cAMP
After stirring at room temperature for an hour, the cells were lysed with Triton X-100 (final concentration: 1%).
Quantity of cAMP was determined using cAMP Femtomolar Kit (CIS Bio International). The reaction solution (1 μL) was moved to a new 384-well plate and diluted by adding 9 μL of dilution buffer. Next, each 5 μL of cAMP-XL665 solution and anti-cAMP cryptate solution of the Kit was added, the mixture was incubated at room temperature for an hour, and time-resolved fluorescence was measured using RUBYstar (BMG LABTECH).

T1 sequence (P43220 24-463, species assumed): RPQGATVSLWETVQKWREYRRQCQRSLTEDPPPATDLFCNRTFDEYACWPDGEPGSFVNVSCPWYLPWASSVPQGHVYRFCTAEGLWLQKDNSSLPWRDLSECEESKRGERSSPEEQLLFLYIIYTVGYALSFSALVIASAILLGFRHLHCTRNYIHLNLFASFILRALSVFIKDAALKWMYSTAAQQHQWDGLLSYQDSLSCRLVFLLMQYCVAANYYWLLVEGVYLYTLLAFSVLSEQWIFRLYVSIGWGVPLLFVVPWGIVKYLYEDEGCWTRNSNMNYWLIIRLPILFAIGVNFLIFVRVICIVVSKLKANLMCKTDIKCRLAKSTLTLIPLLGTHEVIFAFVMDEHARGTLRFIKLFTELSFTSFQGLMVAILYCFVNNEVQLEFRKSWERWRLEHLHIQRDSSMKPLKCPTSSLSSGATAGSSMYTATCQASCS

The pIC50 is the negative decadic logarithm of the IC50, by convention in mol/L. High values mean a small IC50, low ones a large IC50. The pEC50 is −log10 of the EC50, conventionally taken in molar units. A higher pEC50 goes with a low EC50. Compound `CC[C@H](C)[C@H](NC(=O)[C@H](Cc1ccccc1)NC(=O)[C@H](CCC(=O)O)NC(=O)[C@H](CCCCN)NC(=O)[C@H](C)NC(=O)[C@H](C)NC(=O)[C@H](CCC(N)=O)NC(=O)CNC(=O)[C@H](CCC(=O)O)NC(=O)[C@H](CC(C)C)NC(=O)[C@H](Cc1ccc(O)cc1)NC(=O)[C@H](CO)NC(=O)[C@H](CO)NC(=O)[C@@H](NC(=O)[C@H](CC(=O)O)NC(=O)[C@H](CO)NC(=O)[C@@H](NC(=O)[C@H](Cc1ccccc1)NC(=O)[C@@H](NC(=O)CNC(=O)[C@H](CCC(=O)O)NC(=O)[C@H](C)NC(=O)[C@@H](N)Cc1c[nH]cn1)[C@@H](C)O)[C@@H](C)O)C(C)C)C(=O)N[C@@H](C)C(=O)N[C@@H](Cc1c[nH]c2ccccc12)C(=O)N[C@@H](CC(C)C)C(=O)N[C@H](C(=O)N[C@@H](CC(=O)N[C@@H]1O[C@H](CO)[C@@H](O[C@@H]2O[C@H](CO)[C@H](O)[C@H](O)[C@H]2O)[C@H](O)[C@H]1NC(C)=O)C(=O)NCC(=O)N[C@@H](CCCNC(=N)N)C(N)=O)C(C)C` [GL34NL] had a negative-log IC50 (pIC50) against GLP-1 receptor [1] of 9.12. The compound further gave a pEC50 at GLP-1 receptor [2] of 9.96.
On to `CC[C@H](C)[C@H](NC(=O)[C@H](Cc1ccccc1)NC(=O)[C@H](CCC(=O)O)NC(=O)[C@H](CCCCN)NC(=O)[C@H](C)NC(=O)[C@H](C)NC(=O)[C@H](CCC(N)=O)NC(=O)CNC(=O)[C@H](CCC(=O)O)NC(=O)[C@H](CC(C)C)NC(=O)[C@H](Cc1ccc(O)cc1)NC(=O)[C@H](CO)NC(=O)[C@H](CO)NC(=O)[C@@H](NC(=O)[C@H](CC(=O)O)NC(=O)[C@H](CO)NC(=O)[C@@H](NC(=O)[C@H](Cc1ccccc1)NC(=O)[C@@H](NC(=O)CNC(=O)[C@H](CCC(=O)O)NC(=O)[C@H](C)NC(=O)[C@@H](N)Cc1c[nH]cn1)[C@@H](C)O)[C@@H](C)O)C(C)C)C(=O)N[C@@H](C)C(=O)N[C@@H](Cc1c[nH]c2ccccc12)C(=O)N[C@@H](CC(C)C)C(=O)N[C@H](C(=O)N[C@@H](CC(=O)N[C@@H]1O[C@H](CO)[C@@H](O[C@@H]2O[C@H](CO[C@]3(C(=O)O)C[C@H](O)[C@@H](NC(C)=O)[C@H]([C@H](O)[C@H](O)CO)O3)[C@H](O)[C@H](O)[C@H]2O)[C@H](O)[C@H]1NC(C)=O)C(=O)NCC(=O)N[C@@H](CCCNC(=N)N)C(=O)N[C@@H](CC(=O)N[C@@H]1O[C@H](CO)[C@@H](O[C@@H]2O[C@H](CO[C@]3(C(=O)O)C[C@H](O)[C@@H](NC(C)=O)[C@H]([C@H](O)[C@H](O)CO)O3)[C@H](O)[C@H](O)[C@H]2O)[C@H](O)[C@H]1NC(C)=O)C(N)=O)C(C)C` [GL3437NS6], for which the pIC50 at GLP-1 receptor [1] is 8.52. Also, the pEC50 at GLP-1 receptor [2] was 9.70.
Turning to `CC[C@H](C)[C@H](NC(=O)[C@H](Cc1ccccc1)NC(=O)[C@H](CCC(=O)O)NC(=O)[C@H](CCCCN)NC(=O)[C@H](C)NC(=O)[C@H](C)NC(=O)[C@H](CCC(N)=O)NC(=O)CNC(=O)[C@H](CCC(=O)O)NC(=O)[C@H](CC(C)C)NC(=O)[C@H](CC(=O)N[C@@H]1O[C@H](CO)[C@@H](O[C@@H]2O[C@H](CO[C@]3(C(=O)O)C[C@H](O)[C@@H](NC(C)=O)[C@H]([C@H](O)[C@H](O)CO)O3)[C@H](O)[C@H](O)[C@H]2O)[C@H](O)[C@H]1NC(C)=O)NC(=O)[C@H](CO)NC(=O)[C@H](CO)NC(=O)[C@@H](NC(=O)[C@H](CC(=O)O)NC(=O)[C@H](CO)NC(=O)[C@@H](NC(=O)[C@H](Cc1ccccc1)NC(=O)[C@@H](NC(=O)CNC(=O)[C@H](CCC(=O)O)NC(=O)[C@H](C)NC(=O)[C@@H](N)Cc1c[nH]cn1)[C@@H](C)O)[C@@H](C)O)C(C)C)C(=O)N[C@@H](C)C(=O)N[C@@H](Cc1c[nH]c2ccccc12)C(=O)N[C@@H](CC(C)C)C(=O)N[C@H](C(=O)N[C@@H](CCCCN)C(=O)NCC(=O)N[C@@H](CCCNC(=N)N)C(N)=O)C(C)C` [GL19NS6] (H-HAEGTFTSDVSSD(X2)LEGQAAKEFIAWLVKGR-NH2), the pIC50 against GLP-1 receptor [1] was less than 7.00. The pEC50 on GLP-1 receptor [2] is 7.30.
Turning to `CC[C@H](C)[C@H](NC(=O)[C@H](Cc1ccccc1)NC(=O)[C@H](CCC(=O)O)NC(=O)[C@H](CCCCN)NC(=O)[C@H](C)NC(=O)[C@H](C)NC(=O)[C@H](CCC(N)=O)NC(=O)CNC(=O)[C@H](CCC(=O)O)NC(=O)[C@H](CC(C)C)NC(=O)[C@H](CC(=O)N[C@@H]1O[C@H](CO)[C@@H](O)[C@H](O)[C@H]1NC(C)=O)NC(=O)[C@H](CO)NC(=O)[C@H](CO)NC(=O)[C@@H](NC(=O)[C@H](CC(=O)O)NC(=O)[C@H](CO)NC(=O)[C@@H](NC(=O)[C@H](Cc1ccccc1)NC(=O)[C@@H](NC(=O)CNC(=O)[C@H](CCC(=O)O)NC(=O)[C@H](C)NC(=O)[C@@H](N)Cc1c[nH]cn1)[C@@H](C)O)[C@@H](C)O)C(C)C)C(=O)N[C@@H](C)C(=O)N[C@@H](Cc1c[nH]c2ccccc12)C(=O)N[C@@H](CC(C)C)C(=O)N[C@H](C(=O)N[C@@H](CCCCN)C(=O)NCC(=O)N[C@@H](CCCNC(=N)N)C(N)=O)C(C)C` [GL19NG] (H-HAEGTFTSDVSSD(NH(β-GlcNAc))LEGQAAKEFIAWLVKGR-NH2), the pIC50 against GLP-1 receptor [1] is 7.39. The compound further showed a negative logarithm of the EC50 (pEC50) at GLP-1 receptor [2] of 8.09.
`CC[C@H](C)[C@H](NC(=O)[C@H](Cc1ccccc1)NC(=O)[C@H](CCC(=O)O)NC(=O)[C@H](CCCCN)NC(=O)[C@H](C)NC(=O)[C@H](C)NC(=O)[C@H](CCC(N)=O)NC(=O)CNC(=O)[C@H](CCC(=O)O)NC(=O)[C@H](CC(C)C)NC(=O)[C@H](Cc1ccc(O)cc1)NC(=O)[C@H](CO)NC(=O)[C@H](CO)NC(=O)[C@@H](NC(=O)[C@H](CC(=O)O)NC(=O)[C@H](CO)NC(=O)[C@@H](NC(=O)[C@H](Cc1ccccc1)NC(=O)[C@@H](NC(=O)CNC(=O)[C@H](CCC(=O)O)NC(=O)[C@H](C)NC(=O)[C@@H](N)Cc1c[nH]cn1)[C@@H](C)O)[C@@H](C)O)C(C)C)C(=O)N[C@@H](C)C(=O)N[C@@H](Cc1c[nH]c2ccccc12)C(=O)N[C@@H](CC(C)C)C(=O)N[C@H](C(=O)N[C@@H](CSCC(=O)N[C@@H](CCC(=O)N[C@@H](CC(=O)N[C@@H]1O[C@H](CO)[C@@H](O[C@@H]2O[C@H](CO)[C@@H](O[C@@H]3O[C@H](CO[C@H]4O[C@H](CO)[C@@H](O)[C@H](O)[C@@H]4O[C@@H]4O[C@H](CO)[C@@H](O[C@@H]5O[C@H](CO[C@]6(C(=O)O)C[C@H](O)[C@@H](NC(C)=O)[C@H]([C@H](O)[C@H](O)CO)O6)[C@H](O)[C@H](O)[C@H]5O)[C@H](O)[C@H]4NC(C)=O)[C@@H](O)[C@H](O[C@H]4O[C@H](CO)[C@@H](O)[C@H](O)[C@@H]4O[C@@H]4O[C@H](CO)[C@@H](O[C@@H]5O[C@H](CO[C@]6(C(=O)O)C[C@H](O)[C@@H](NC(C)=O)[C@H]([C@H](O)[C@H](O)CO)O6)[C@H](O)[C@H](O)[C@H]5O)[C@H](O)[C@H]4NC(C)=O)[C@@H]3O)[C@H](O)[C@H]2NC(C)=O)[C@H](O)[C@H]1NC(C)=O)C(=O)O)C(=O)N[C@@H](CC(=O)N[C@@H]1O[C@H](CO)[C@@H](O[C@@H]2O[C@H](CO)[C@@H](O[C@@H]3O[C@H](CO[C@H]4O[C@H](CO)[C@@H](O)[C@H](O)[C@@H]4O[C@@H]4O[C@H](CO)[C@@H](O[C@@H]5O[C@H](CO[C@]6(C(=O)O)C[C@H](O)[C@@H](NC(C)=O)[C@H]([C@H](O)[C@H](O)CO)O6)[C@H](O)[C@H](O)[C@H]5O)[C@H](O)[C@H]4NC(C)=O)[C@@H](O)[C@H](O[C@H]4O[C@H](CO)[C@@H](O)[C@H](O)[C@@H]4O[C@@H]4O[C@H](CO)[C@@H](O[C@@H]5O[C@H](CO[C@]6(C(=O)O)C[C@H](O)[C@@H](NC(C)=O)[C@H]([C@H](O)[C@H](O)CO)O6)[C@H](O)[C@H](O)[C@H]5O)[C@H](O)[C@H]4NC(C)=O)[C@@H]3O)[C@H](O)[C@H]2NC(C)=O)[C@H](O)[C@H]1NC(C)=O)C(=O)O)C(=O)NCC(=O)N[C@@H](CCCNC(=N)N)C(N)=O)C(C)C` [GL34CE2] showed a pIC50 on GLP-1 receptor [1] of 7.70. Besides, the negative logarithm of the EC50 (pEC50) on GLP-1 receptor [2] is 8.47.
With `CC[C@H](C)[C@H](NC(=O)[C@H](Cc1ccccc1)NC(=O)[C@H](CCC(=O)O)NC(=O)[C@H](CCCCN)NC(=O)[C@H](C)NC(=O)[C@H](C)NC(=O)[C@H](CCC(N)=O)NC(=O)CNC(=O)[C@H](CCC(=O)O)NC(=O)[C@H](CC(C)C)NC(=O)[C@H](Cc1ccc(O)cc1)NC(=O)[C@H](CO)NC(=O)[C@H](CO)NC(=O)[C@@H](NC(=O)[C@H](CC(=O)O)NC(=O)[C@H](CO)NC(=O)[C@@H](NC(=O)[C@H](Cc1ccccc1)NC(=O)[C@@H](NC(=O)CNC(=O)[C@H](CCC(=O)O)NC(=O)[C@H](C)NC(=O)[C@@H](N)Cc1c[nH]cn1)[C@@H](C)O)[C@@H](C)O)C(C)C)C(=O)N[C@@H](C)C(=O)N[C@@H](Cc1c[nH]c2ccccc12)C(=O)N[C@@H](CC(C)C)C(=O)N[C@H](C(=O)N[C@@H](CC(=O)N[C@@H]1O[C@H](CO)[C@@H](O)[C@H](O)[C@H]1NC(C)=O)C(=O)NCC(=O)N[C@@H](CCCNC(=N)N)C(=O)N[C@@H](CC(=O)N[C@@H]1O[C@H](CO)[C@@H](O)[C@H](O)[C@H]1NC(C)=O)C(N)=O)C(C)C` [GL3437NG], at GLP-1 receptor [1], the pIC50 was 9.05. For the same compound, at GLP-1 receptor [2], the negative-log EC50 (pEC50) was 9.96.
`CC[C@H](C)[C@H](NC(=O)[C@H](Cc1ccccc1)NC(=O)[C@H](CCC(=O)O)NC(=O)[C@H](CCCCN)NC(=O)[C@H](C)NC(=O)[C@H](C)NC(=O)[C@H](CCC(N)=O)NC(=O)CNC(=O)[C@H](CCC(=O)O)NC(=O)[C@H](CC(C)C)NC(=O)[C@H](CC(=O)N[C@@H]1O[C@H](CO)[C@@H](O[C@@H]2O[C@H](CO)[C@H](O)[C@H](O)[C@H]2O)[C@H](O)[C@H]1NC(C)=O)NC(=O)[C@H](CO)NC(=O)[C@H](CO)NC(=O)[C@@H](NC(=O)[C@H](CC(=O)O)NC(=O)[C@H](CO)NC(=O)[C@@H](NC(=O)[C@H](Cc1ccccc1)NC(=O)[C@@H](NC(=O)CNC(=O)[C@H](CCC(=O)O)NC(=O)[C@H](C)NC(=O)[C@@H](N)Cc1c[nH]cn1)[C@@H](C)O)[C@@H](C)O)C(C)C)C(=O)N[C@@H](C)C(=O)N[C@@H](Cc1c[nH]c2ccccc12)C(=O)N[C@@H](CC(C)C)C(=O)N[C@H](C(=O)N[C@@H](CCCCN)C(=O)NCC(=O)N[C@@H](CCCNC(=N)N)C(N)=O)C(C)C` [GL19NL] (H-HAEGTFTSDVSSD(X1)LEGQAAKEFIAWLVKGR-NH2; N-terminus assumed) had a negative-log IC50 (pIC50) against GLP-1 receptor [1] of 7.42. The compound further had a pEC50 on GLP-1 receptor [2] of 8.08.
